Test results taken from PubChem BioAssay AID1963971 (Molecular Pharmacology Branch, DTP, NCI, 2024).
“And” between values parts separate entries of the source, which are not always exact repeats. Equal values may be shown once.

Tested on: 953936-095-R-J2-PDC spheroids with HUVEC/MSC, viability
Test: Anticancer human tumor 953936-095-R-J2-PDC patient-derived cervical squamous cell carcinoma cell line growth inhibition [PI3K]
Conditions: for viability, T/C: stronger effect = lower value
Method in brief: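 Three cell types, namely tumor cells, endothelial cells and mesenchymal stem cells, formed each spheroid. Combinations with four PI3K inhibitors were screened at clinically achievable concentrations decreasing by half-log, and spheroid viability was recorded.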

[1] = curve of first compound, second compound 0.0316 µM
[2] = curve of first compound, second compound 0.1 µM
[3] = curve of first compound, second compound 0.316 µM
[4] = curve of first compound, second compound 1 µM
[5] = curve of first compound, second compound 3.16 µM
[6] = curve of first compound, second compound 10 µM
[7] = second compound 0.0316 µM, first compound 0.0316 µM
[8] = second compound 0.0316 µM, first compound 0.1 µM
[9] = second compound 0.0316 µM, first compound 0.316 µM
[10] = second compound 0.0316 µM, first compound 1 µM
[11] = second compound 0.0316 µM, first compound 3.16 µM
[12] = second compound 0.0316 µM, first compound 10 µM
[13] = second compound 0.1 µM, first compound 0.0316 µM
[14] = second compound 0.1 µM, first compound 0.1 µM
[15] = second compound 0.1 µM, first compound 0.316 µM
[16] = second compound 0.1 µM, first compound 1 µM
[17] = second compound 0.1 µM, first compound 3.16 µM
[18] = second compound 0.1 µM, first compound 10 µM
[19] = second compound 0.316 µM, first compound 0.0316 µM
[20] = second compound 0.316 µM, first compound 0.1 µM
[21] = second compound 0.316 µM, first compound 0.316 µM
[22] = second compound 0.316 µM, first compound 1 µM
[23] = second compound 0.316 µM, first compound 3.16 µM
[24] = second compound 0.316 µM, first compound 10 µM
[25] = second compound 1 µM, first compound 0.0316 µM
[26] = second compound 1 µM, first compound 0.1 µM
[27] = second compound 1 µM, first compound 0.316 µM
[28] = second compound 1 µM, first compound 1 µM
[29] = second compound 1 µM, first compound 3.16 µM
[30] = second compound 1 µM, first compound 10 µM
[31] = second compound 3.16 µM, first compound 0.0316 µM
[32] = second compound 3.16 µM, first compound 0.1 µM
[33] = second compound 3.16 µM, first compound 0.316 µM
[34] = second compound 3.16 µM, first compound 1 µM
[35] = second compound 3.16 µM, first compound 3.16 µM
[36] = second compound 3.16 µM, first compound 10 µM
[37] = second compound 10 µM, first compound 0.0316 µM
[38] = second compound 10 µM, first compound 0.1 µM
[39] = second compound 10 µM, first compound 0.316 µM
[40] = second compound 10 µM, first compound 1 µM
[41] = second compound 10 µM, first compound 3.16 µM
[42] = second compound 10 µM, first compound 10 µM
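Also: spheroids exposed to compounds for seven days before read-out.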

CCN1CCN(Cc2ccc(Nc3ncc(F)c(-c4cc(F)c5nc(C)n(C(C)C)c5c4)n3)nc2)CC1
viability, T/C (compound 0.00316 µM): 98.4% [middle of 4 runs] | viability, T/C (compound 0.01 µM): 96.4% [middle of 4 runs] | viability, T/C (compound 0.0316 µM): 93.1% [middle of 4 runs] | viability, T/C (compound 0.1 µM): 100% and 101% (2×) and 89.5% | viability, T/C (compound 0.316 µM): 88.2% [middle of 4 runs] | viability, T/C (compound 1 µM): 85.2% [middle of 4 runs] | IC50 (curve of compound): > 1000 nM

C=CC(=O)N1CCN(c2nc(=O)n(-c3c(C)ccnc3C(C)C)c3nc(-c4c(O)cccc4F)c(F)cc23)C(C)C1 (stereo unspecified) + Cc1nc(NC(=O)N2CCCC2C(N)=O)sc1-c1ccnc(C(C)(C)C(F)(F)F)c1
IC50 [1]: > 10000 nM | IC50 [2]: > 10000 nM | IC50 [3]: > 10000 nM | IC50 [4]: < 31.6 nM | IC50 [5]: < 31.6 nM | IC50 [6]: < 31.6 nM | viability, T/C [7]: 85.5% | viability, T/C [8]: 89.2% | viability, T/C [9]: 95.8% | viability, T/C [10]: 109% | viability, T/C [11]: 110% | viability, T/C [12]: 105% | viability, T/C [13]: 81.9% | viability, T/C [14]: 83.7% | viability, T/C [15]: 90.2% | viability, T/C [16]: 98.6% | viability, T/C [17]: 123% | viability, T/C [18]: 117% | viability, T/C [19]: 64.5% | viability, T/C [20]: 65.7% | viability, T/C [21]: 68.8% | viability, T/C [22]: 86% | viability, T/C [23]: 84.4% | viability, T/C [24]: 73.7% | viability, T/C [25]: 46% | viability, T/C [26]: 52.1% | viability, T/C [27]: 47.7% | viability, T/C [28]: 51.5% | viability, T/C [29]: 55.9% | viability, T/C [30]: 48% | viability, T/C [31]: 27% | viability, T/C [32]: 27.8% | viability, T/C [33]: 27% | viability, T/C [34]: 32.8% | viability, T/C [35]: 33.4% | viability, T/C [36]: 26.1% | viability, T/C [37]: 11.5% | viability, T/C [38]: 11.8% | viability, T/C [39]: 11.9% | viability, T/C [40]: 11.9% | viability, T/C [41]: 10.8% | viability, T/C [42]: 7.49%

CC(C)NCC(C(=O)N1CCN(c2ncnc3c2C(C)CC3O)CC1)c1ccc(Cl)cc1 (stereo unspecified) + Cc1nc(NC(=O)N2CCCC2C(N)=O)sc1-c1ccnc(C(C)(C)C(F)(F)F)c1
IC50 [1]: 825 nM | IC50 [2]: 709 nM | IC50 [3]: 463 nM | IC50 [4]: < 31.6 nM | IC50 [5]: < 31.6 nM | IC50 [6]: < 31.6 nM | viability, T/C [7]: 88.8% | viability, T/C [8]: 89.2% | viability, T/C [9]: 75.7% | viability, T/C [10]: 44.1% | viability, T/C [11]: 23.3% | viability, T/C [12]: 14.3% | viability, T/C [13]: 82.6% | viability, T/C [14]: 76.7% | viability, T/C [15]: 67.2% | viability, T/C [16]: 42.4% | viability, T/C [17]: 22.4% | viability, T/C [18]: 12.2% | viability, T/C [19]: 64.6% | viability, T/C [20]: 62.4% | viability, T/C [21]: 55.6% | viability, T/C [22]: 38.2% | viability, T/C [23]: 17.4% | viability, T/C [24]: 11.6% | viability, T/C [25]: 48.7% | viability, T/C [26]: 42.2% | viability, T/C [27]: 39.3% | viability, T/C [28]: 28.3% | viability, T/C [29]: 16.2% | viability, T/C [30]: 7.67% | viability, T/C [31]: 27.6% | viability, T/C [32]: 25.6% | viability, T/C [33]: 24.5% | viability, T/C [34]: 18% | viability, T/C [35]: 11.3% | viability, T/C [36]: 5.35% | viability, T/C [37]: 11.6% | viability, T/C [38]: 11.2% | viability, T/C [39]: 10.9% | viability, T/C [40]: 8.17% | viability, T/C [41]: 5.5% | viability, T/C [42]: 2.61%
